Reference: ChEMBL document CHEMBL6109156, “Discovery of Dual PD-L1/HDAC3 Inhibitors for Tumor Immunotherapy” (J Med Chem, 2025)
Calls of active or inactive are those of the source. No cut-off for these calls is given here.

Legend:
[1] = system: B16-F10; experiment: Immunomodulatory activity in mouse B16-F10 cells implanted in C57BL/6J mouse assessed as percentage of CD3 positive CD4 positive cells in tumor at 10 mg/kg, ip administered once daily for 9 days in presence of NP19 by flow cytometric analysis (reference value: 0.20 %); format: functional; conditions: time 9 day
[2] = system: B16-F10; experiment: Antitumor activity against mouse B16-F10 cells implanted in C57BL/6J mouse assessed as tumor growth inhibition at 20 mg/kg, ip administered once daily for 9 days in presence of NP19; format: functional; conditions: B16-F10, 216 h, time 9 day, read-out: TGI
[3] = system: B16-F10; experiment: Induction of apoptosis in mouse B16-F10 cells assessed as early apoptotic cells at 4 uM incubated for 48 hrs by Annexin V-FITC/PI staining based flow cytometry analysis (reference value: 0.45 %); format: functional
[4] = system: B16-F10; experiment: Induction of cell cycle arrest in mouse B16-F10 cells assessed as accumulation of cells at G0/G1 phase at 4 uM incubated for 48 hrs by PI staining based flow cytometry analysis (reference value: 70.09%); format: functional
[5] = target: T1, Programmed cell death protein 1/Programmed cell death 1 ligand 1 (Homo sapiens, UniProt Q9NZQ7); experiment: Inhibition of PD-1/PD-L1 (unknown origin) interaction assessed as inhibition rate at 1 uM by HTRF assay relative to control; format: protein-complex assay
[6] = system: A-375; experiment: Antiproliferative activity against human A-375 cells assessed as cell growth inhibition incubated for 48 hrs by MTT assay; format: functional, cell-based; conditions: A-375, 48 h
[7] = system: B16-F10; experiment: Immunomodulatory activity in mouse B16-F10 cells implanted in C57BL/6J mouse assessed as percentage of CD3 positive CD8 positive cells in tumor at 10 mg/kg, ip administered once daily for 9 days in presence of NP19 by flow cytometric analysis (reference value: 0.44 %); format: functional; conditions: time 9 day
[8] = system: B16-F10; experiment: Induction of cell cycle arrest in mouse B16-F10 cells assessed as accumulation of cells at S phase at 4 uM incubated for 48 hrs by PI staining based flow cytometry analysis (reference value: 24.04%); format: functional
[9] = system: B16-F10; experiment: Induction of cell cycle arrest in mouse B16-F10 cells assessed as accumulation of cells at G2/M phase at 4 uM incubated for 48 hrs by PI staining based flow cytometry analysis (reference value: 5.87%); format: functional
[10] = system: MDA-MB-231; experiment: Antiproliferative activity against human MDA-MB-231 cells assessed as cell growth inhibition incubated for 48 hrs by MTT assay; format: functional, cell-based; conditions: MDA-MB-231, 48 h
[11] = system: HepG2; experiment: Antiproliferative activity against human HepG2 cells assessed as cell growth inhibition incubated for 48 hrs by MTT assay; format: functional, cell-based; conditions: HepG2, 48 h
[12] = system: B16-F10; experiment: Induction of apoptosis in mouse B16-F10 cells assessed as late apoptotic cells at 4 uM incubated for 48 hrs by Annexin V-FITC/PI staining based flow cytometry analysis (reference value: 5.02 %); format: functional
[13] = system: B16-F10; experiment: Induction of apoptosis in mouse B16-F10 cells assessed as viable cells at 4 uM incubated for 48 hrs by Annexin V-FITC/PI staining based flow cytometry analysis (reference value: 92.3%); format: functional; conditions: read-out: Activity
[14] = system: B16-F10; experiment: Induction of apoptosis in mouse B16-F10 cells assessed as necrotic cells at 4 uM incubated for 48 hrs by Annexin V-FITC/PI staining based flow cytometry analysis (reference value: 2.24%); format: functional
[15] = system: HCT-116; experiment: Antiproliferative activity against human HCT-116 cells assessed as cell growth inhibition incubated for 48 hrs by MTT assay; format: functional, cell-based; conditions: HCT-116, 48 h
[16] = system: B16-F10; experiment: Immunomodulatory activity in mouse B16-F10 cells implanted in C57BL/6J mouse assessed as percentage of CD3 positive CD4 positive cells in tumor at 20 mg/kg, ip administered once daily for 9 days by flow cytometric analysis (reference value: 0.20 %); format: functional; conditions: time 9 day
[17] = system: B16-F10; experiment: Immunomodulatory activity in mouse B16-F10 cells implanted in C57BL/6J mouse assessed as percentage of CD3 positive CD4 positive cells in tumor at 10 mg/kg, ip administered once daily for 9 days in presence of MS-275 by flow cytometric analysis (reference value: 0.20 %); format: functional; conditions: time 9 day
[18] = target: T1, Programmed cell death protein 1/Programmed cell death 1 ligand 1; experiment: Inhibition of PD-1/PD-L1 (unknown origin) interaction assessed as inhibition rate by HTRF assay; format: protein-complex assay
[19] = Toxicity in C57BL/6J mouse implanted with mouse B16-F10 cells assessed as body weight loss at 20 mg/kg, ip administered once daily for 5 days in presence of MS-275; format: organism-based; conditions: in vivo, 120 h, time 5 day
[20] = system: 4T1; experiment: Antiproliferative activity against mouse 4T1 cells assessed as cell growth inhibition incubated for 48 hrs by MTT assay; format: functional, cell-based; conditions: 4T1, 48 h
[21] = system: B16-F10; experiment: Antitumor activity against mouse B16-F10 cells implanted in C57BL/6J mouse assessed as tumor growth inhibition at 20 mg/kg, ip administered once daily for 9 days in presence of MS-275; format: functional; conditions: B16-F10, 216 h, time 9 day, read-out: TGI
[22] = system: B16-F10; experiment: Immunomodulatory activity in mouse B16-F10 cells implanted in C57BL/6J mouse assessed as percentage of CD3 positive CD8 positive cells in tumor at 20 mg/kg, ip administered once daily for 9 days by flow cytometric analysis (reference value: 0.44 %); format: functional; conditions: time 9 day
[23] = target: T2, Histone deacetylase 3 (Mus musculus) (UniProt O88895); experiment: Inhibition of HDAC3 in mouse B16-F10 cells assessed as upregulation of Ac-H3 level at 3 uM incubated for 24 hrs by Western blotting analysis; format: cell-based
T2 sequence (whole entry): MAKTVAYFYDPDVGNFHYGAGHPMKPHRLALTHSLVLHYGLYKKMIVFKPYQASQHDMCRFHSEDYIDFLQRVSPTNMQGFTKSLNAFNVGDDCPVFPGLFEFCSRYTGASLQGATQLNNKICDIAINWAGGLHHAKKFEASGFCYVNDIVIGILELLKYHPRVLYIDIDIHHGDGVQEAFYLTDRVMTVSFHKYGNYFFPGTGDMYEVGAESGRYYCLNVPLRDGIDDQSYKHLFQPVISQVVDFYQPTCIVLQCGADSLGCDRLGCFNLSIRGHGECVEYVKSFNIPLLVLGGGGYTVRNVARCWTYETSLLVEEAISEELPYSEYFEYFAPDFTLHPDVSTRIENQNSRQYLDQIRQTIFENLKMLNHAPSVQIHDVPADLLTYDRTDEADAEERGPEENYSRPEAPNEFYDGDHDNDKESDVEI

[24] = system: B16-F10; experiment: Antiproliferative activity against mouse B16-F10 cells assessed as cell growth inhibition incubated for 48 hrs by MTT assay; format: functional, cell-based; conditions: B16-F10, 48 h
[25] = system: B16-F10; experiment: Immunomodulatory activity in mouse B16-F10 cells implanted in C57BL/6J mouse assessed as percentage of CD3 positive CD8 positive cells in tumor at 10 mg/kg, ip administered once daily for 9 days in presence of MS-275 by flow cytometric analysis (reference value: 0.44 %); format: functional; conditions: time 9 day
[26] = system: B16-F10; experiment: Antitumor activity against mouse B16-F10 cells implanted in C57BL/6J mouse assessed as tumor growth inhibition at 20 mg/kg, ip administered once daily for 9 days; format: functional; conditions: B16-F10, 216 h, time 9 day, read-out: TGI
[27] = Toxicity in C57BL/6J mouse implanted with mouse B16-F10 cells assessed as animal death at 20 mg/kg, ip administered once daily for 5 days in presence of MS-275; format: organism-based; conditions: in vivo, 120 h, time 5 day
[28] = Toxicity in C57BL/6J mouse implanted with mouse B16-F10 cells assessed as body weight loss at 20 mg/kg, ip administered once daily for 9 days; format: organism-based; conditions: in vivo, 216 h, time 9 day
[29] = target: Histone deacetylase 3 (Homo sapiens, UniProt O15379); experiment: Inhibition of human recombinant HDAC3 using Ac-Leu-Gly-Lys (Ac)-AMC as substrate preincubated for 10 mins followed by substrate addition and measured after 45 mins by TECAN microtiter plate reader analysis
Sequence of Histone deacetylase 3 (O15379 whole entry): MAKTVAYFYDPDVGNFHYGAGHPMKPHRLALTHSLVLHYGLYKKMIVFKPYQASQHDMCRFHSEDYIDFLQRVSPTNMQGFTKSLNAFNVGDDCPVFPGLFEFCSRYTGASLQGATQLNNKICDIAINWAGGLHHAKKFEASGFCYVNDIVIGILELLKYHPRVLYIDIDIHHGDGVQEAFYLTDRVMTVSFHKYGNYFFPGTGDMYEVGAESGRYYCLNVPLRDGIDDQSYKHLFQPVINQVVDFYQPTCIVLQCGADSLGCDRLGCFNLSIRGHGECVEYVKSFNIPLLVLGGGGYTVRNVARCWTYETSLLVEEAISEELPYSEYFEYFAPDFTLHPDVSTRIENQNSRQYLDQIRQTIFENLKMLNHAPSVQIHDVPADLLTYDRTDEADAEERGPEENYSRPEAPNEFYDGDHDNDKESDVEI

T1 sequence (Q15116 whole entry): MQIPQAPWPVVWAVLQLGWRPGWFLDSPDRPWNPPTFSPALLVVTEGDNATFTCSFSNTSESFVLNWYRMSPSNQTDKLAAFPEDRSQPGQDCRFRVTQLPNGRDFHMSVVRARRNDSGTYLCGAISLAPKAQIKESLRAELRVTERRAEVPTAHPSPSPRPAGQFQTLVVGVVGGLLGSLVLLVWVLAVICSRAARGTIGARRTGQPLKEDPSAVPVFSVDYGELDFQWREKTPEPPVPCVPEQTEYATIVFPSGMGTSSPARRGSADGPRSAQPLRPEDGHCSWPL
T1 sequence (Q9NZQ7 whole entry): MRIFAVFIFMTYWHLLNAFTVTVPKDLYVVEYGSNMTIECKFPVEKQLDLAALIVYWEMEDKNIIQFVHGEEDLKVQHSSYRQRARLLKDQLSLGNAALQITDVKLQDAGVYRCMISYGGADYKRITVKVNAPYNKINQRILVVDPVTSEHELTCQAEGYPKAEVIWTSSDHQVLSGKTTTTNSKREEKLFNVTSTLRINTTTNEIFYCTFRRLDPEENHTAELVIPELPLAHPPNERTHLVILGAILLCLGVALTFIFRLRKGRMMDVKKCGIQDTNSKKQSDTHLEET

Structure (SMILES)	Activity [3] [%]	Activity [4] [%]	IC50 [5] [µM]	IC50 [6] [µM]	Activity [8] [%]	Activity [9] [%]	IC50 [10] [µM]	IC50 [11] [µM]	Activity [12] [%]	viability at 4 µM [13] [%]	Activity [14] [%]	IC50 [15] [µM]	also measured
Nc1ccccc1NC(=O)c1ccc(CNC(=O)OCc2cccnc2)cc1 [ENTINOSTAT]	7.43	87.62	> 10	4.91	5.79	6.59	30.3	6.32	12.8	74.5	5.25	3.54	Activity [1]: 1.89%; inhibition in vivo at 20 mg/kg [2]: 37%; Activity [7]: 3.34%
Cc1c(COc2cc(OCc3cccc(C#N)c3)c(CNC(C)(C)C(=O)O)cc2Cl)cccc1-c1ccccc1	0.47	70.67	0.0683	> 50	24.28	5.05	> 50	> 50	3.95	93.6	1.96	> 50	Activity [16]: 0.78%; Activity [17]: 1.89%; IC50 [18]: 0.0683 µM; Activity [19]: Toxic; IC50 [20]: > 50 µM; inhibition in vivo at 20 mg/kg [21]: 37%; Activity [22]: 2.68%; inhibition [23]: inactive; IC50 [24]: > 50 µM; Activity [25]: 3.34%; inhibition in vivo at 20 mg/kg [26]: 30.8%; Activity [27]: Toxic; Activity [28]: Non-toxic; IC50 [29]: > 10 µM
